# Molecular target: T1, human PAH with the R408W mutation (Homo sapiens, UniProt P00439, R408W)
# T1 construct: expressed in transfected cells
# T1 sequence (P00439 1-452 R408W): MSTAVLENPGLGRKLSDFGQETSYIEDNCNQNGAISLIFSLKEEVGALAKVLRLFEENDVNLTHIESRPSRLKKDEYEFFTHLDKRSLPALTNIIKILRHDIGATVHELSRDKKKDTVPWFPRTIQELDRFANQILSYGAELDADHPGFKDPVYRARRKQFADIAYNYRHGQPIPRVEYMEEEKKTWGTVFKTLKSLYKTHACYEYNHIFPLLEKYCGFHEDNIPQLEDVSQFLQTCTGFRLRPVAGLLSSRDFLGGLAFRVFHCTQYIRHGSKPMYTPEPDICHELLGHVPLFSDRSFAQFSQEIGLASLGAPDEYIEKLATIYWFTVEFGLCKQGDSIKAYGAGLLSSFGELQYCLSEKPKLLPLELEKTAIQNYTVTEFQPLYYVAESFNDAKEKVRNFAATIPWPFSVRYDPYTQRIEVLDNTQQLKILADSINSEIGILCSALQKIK
# Assay: Cell Based Phenylalanine Flux Assay
# Conditions: A375 cells expressing human R408W PAH; 24 hrs compound incubation; 13C-Tyrosine by LC-MS; average where tested multiple times; read-out: AC50
row,AC50 [µM],SMILES
1,< 0.5,"O=C(c1cn(CC2CC2)nc1Cl)N1CCc2[nH]cnc2[C@H]1c1nc2c(F)cccc2s1 [Example 1983, (S)-(3-chloro-1-(cyclopropylmethyl)-1H-pyrazol-4-yl)(4-(4-fluorobenzo[d]thiazol-2-yl)-6,7-dihydro-1H-imidazo[4,5-c]pyridin-5(4H)-yl)methanone]"
2,1 to 5,"O=C(c1cn(CC2CC2)nc1Cl)N1CCc2[nH]cnc2[C@@H]1c1nc2c(F)cccc2s1 [Example 1984, (R)-(3-chloro-1-(cyclopropylmethyl)-1H-pyrazol-4-yl)(4-(4-fluorobenzo[d]thiazol-2-yl)-6,7-dihydro-1H-imidazo[4,5-c]pyridin-5(4H)-yl)methanone]"
3,< 0.5,O=C(c1cn(CC(F)(F)F)nc1C(F)F)N1CCc2[nH]cnc2[C@H]1c1nc2ccccc2s1 [Example 1985]
4,1 to 5,"O=C(c1cn(CC(F)(F)F)nc1C(F)F)N1CCc2[nH]cnc2[C@@H]1c1nc2ccccc2s1 [Example 1986, (R)-(4-(benzo[d]thiazol-2-yl)-6,7-dihydro-1H-imidazo[4,5-c]pyridin-5(4H)-yl)(3-(difluoromethyl)-1-(2,2,2-trifluoroethyl)-1H-pyrazol-4-yl)methanone]"
5,< 0.5,O=C(c1cn(CC(F)(F)F)nc1C(F)F)N1CCc2[nH]cnc2[C@H]1c1nc2c(F)cccc2s1 [Example 1987]
6,1 to 5,"O=C(c1cn(CC(F)(F)F)nc1C(F)F)N1CCc2[nH]cnc2[C@@H]1c1nc2c(F)cccc2s1 [Example 1988, (R)-(3-(difluoromethyl)-1-(2,2,2-trifluoroethyl)-1H-pyrazol-4-yl)(4-(4-fluorobenzo[d]thiazol-2-yl)-6,7-dihydro-1H-imidazo[4,5-c]pyridin-5(4H)-yl)methanone]"
7,1 to 5,"O=C(c1cnn(CC2CC(F)(F)C2)c1Cl)N1CCc2[nH]cnc2[C@H]1c1nc2c(F)cccc2s1 [Example 1989, (S)-(5-chloro-1-((3,3-difluorocyclobutyl)methyl)-1H-pyrazol-4-yl)(4-(4-fluorobenzo[d]thiazol-2-yl)-6,7-dihydro-1H-imidazo[4,5-c]pyridin-5(4H)-yl)methanone]"
8,1 to 5,"O=C(c1cnn(CC2CC(F)(F)C2)c1Cl)N1CCc2[nH]cnc2[C@@H]1c1nc2c(F)cccc2s1 [Example 1990, (R)-(5-chloro-1-((3,3-difluorocyclobutyl)methyl)-1H-pyrazol-4-yl)(4-(4-fluorobenzo[d]thiazol-2-yl)-6,7-dihydro-1H-imidazo[4,5-c]pyridin-5(4H)-yl)methanone]"
9,< 0.5,"CC(=O)Cn1cc(C(=O)N2CCc3[nH]cnc3[C@H]2c2nc3c(F)cccc3s2)c(Cl)n1 [Example 1991, (S)-1-(3-chloro-4-(4-(4-fluorobenzo[d]thiazol-2-yl)-4,5,6,7-tetrahydro-1H-imidazo[4,5-c]pyridine-5-carbonyl)-1H-pyrazol-1-yl)propan-2-one]"
10,> 5,"CC(=O)Cn1cc(C(=O)N2CCc3[nH]cnc3[C@@H]2c2nc3c(F)cccc3s2)c(Cl)n1 [Example 1992, (R)-1-(3-chloro-4-(4-(4-fluorobenzo[d]thiazol-2-yl)-4,5,6,7-tetrahydro-1H-imidazo[4,5-c]pyridine-5-carbonyl)-1H-pyrazol-1-yl)propan-2-one]"
11,1 to 5,"CC(C)(O)Cn1cc(C(=O)N2CCc3[nH]cnc3[C@@H]2c2nc3c(F)cccc3s2)c(Cl)n1 [Example 1993, (R)-(3-chloro-1-(2-hydroxy-2-methylpropyl)-1H-pyrazol-4-yl)(4-(4-fluorobenzo[d]thiazol-2-yl)-6,7-dihydro-1H-imidazo[4,5-c]pyridin-5(4H)-yl)methanone]"
12,1 to 5,CC(C)(O)Cn1cc(C(=O)N2CCc3[nH]cnc3[C@H]2c2nc3c(F)cccc3s2)c(Cl)n1 [Example 1994]
13,< 0.5,O=C(c1oc(C2(O)CC2)nc1C(F)F)N1CCc2[nH]cnc2[C@H]1c1nc2c(F)cccc2s1 [Example 1995]
